Structures can show the parent of a compound that is named as a salt.
molecular target: T1, 5-hydroxytryptamine receptor 3A (Mus musculus, UniProt P23979)
T1 sequence (P23979 whole entry): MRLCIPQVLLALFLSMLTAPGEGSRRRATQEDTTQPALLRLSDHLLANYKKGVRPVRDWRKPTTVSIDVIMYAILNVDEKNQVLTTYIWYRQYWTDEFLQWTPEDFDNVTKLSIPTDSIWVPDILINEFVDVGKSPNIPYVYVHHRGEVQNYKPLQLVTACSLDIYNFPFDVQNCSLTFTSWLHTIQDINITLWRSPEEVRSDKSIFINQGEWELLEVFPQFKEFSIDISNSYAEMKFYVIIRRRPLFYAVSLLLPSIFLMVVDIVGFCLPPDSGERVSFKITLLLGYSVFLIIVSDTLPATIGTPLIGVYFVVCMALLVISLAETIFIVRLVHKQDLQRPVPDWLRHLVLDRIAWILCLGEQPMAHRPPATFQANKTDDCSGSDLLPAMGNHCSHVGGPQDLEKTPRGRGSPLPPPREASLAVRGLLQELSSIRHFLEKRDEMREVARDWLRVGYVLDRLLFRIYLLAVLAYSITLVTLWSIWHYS

Ki [nM] | Structure (SMILES)
0.94 | N=C(N)NC(=N)Nc1cccc(Cl)c1 [1-(3-CHLOROPHENYL)BIGUANIDE HYDROCHLORIDE]
0.21 | Cc1nc[nH]c1CCC(=O)c1cc2ccccc2n1C [CAS_124006]

Structure (SMILES) | Ki [nM]
CN1C2CCC1CC(OC(=O)c1cc(Cl)cc(Cl)c1)C2 (stereo not drawn) [MDL 72222] | 13
